Source: patent EP0288176A1, “Tyrosine derivatives and use thereof” (AJINOMOTO CO., INC., priority 1987, dated 1988)

Experiments:
[1] = Toxicity: LD50 in mice, perorally administered; settings: mouse, in vivo, po, read-out: LD₅₀
Excerpt: Toxicity of O-alkyl tyrosine derivatives is low; each of LD₅₀ in mice perorally administered of O-methyl-N-(4-methylcinnamoyl)-L-tyrosine (S-1), O-methyl-N-(α-fluoro-4-methylcinnamoyl)-L-tyrosine (S-5), O-methyl-N-(β-chloro-4-methylcinnamoyl)-L-tyrosine (S-9) is 3.0 g/kg or higher.

[2] = Activity test: peroral administration with insulin, blood glucose decrease and blood insulin increase; type: in vivo, female mice of ICR-CD-1 strain; design: key to percent decrease in blood sugar (%): The symbol + means that there was no decrease in blood sugar; key to degree of increase of blood insulin: the symbol - means that there was no increase in blood insulin; settings: 0.5 U insulin/10 g bodyweight and 3 mg compound/10 g bodyweight, compared with control group
Procedure: The absorption promoting agents according to the present invention shown in Table 1 were suspended in 0.5% CMC - 0.05 M trisHCl buffer (pH 7.8), and mixed with insulin. The resultant mixture was administered perorally to female mice of ICR-CD-1 strain (aged 5 to 7 weeks) at 0.5 U insulin/10 g bodyweight and 3 mg of the above compound/10 g bodyweight. The percent decrease of blood glucose(%) and the degree of increase of blood insulin after predetermined periods of time were compared with those of the control group, and the results are shown in Table 2.
In the Table, the figures given in the upper rows denote 1) percent of decrease in blood glucose(%) and those in the lower rows in parentheses denote 2) degree of increase in blood insulin level. The symbol + means that there was no decrease in blood sugar and the symbol - means that there was no increase in blood insulin.

Structure (SMILES) | LD50 [1] | percent decrease in blood sugar (%) ([2]; 30 min.) | percent decrease in blood sugar (%) ([2]; 60 min.) | also measured
COc1ccc(C[C@H](NC(=O)C=Cc2ccc(C)cc2)C(=O)O)cc1 [Compound S-1, O-methyl-N-(4-methylcinnamoyl)-L-tyrosine] | ≥ 3000 mg/kg |  |  | 
CCOc1ccc(C[C@H](NC(=O)C=Cc2ccc(C)cc2)C(=O)O)cc1 [Compound S-2, O-ethyl-N-(4-methylcinnamoyl)-L-tyrosine] |  | + |  | degree of increase of blood insulin ([2]; 30 min.): -
COc1ccc(C[C@H](NC(=O)C(F)=Cc2ccccc2)C(=O)O)cc1 [Compound S-4, O-methyl-N-(α-fluorocinnamoyl)-L-tyrosine] |  |  | + | 
COc1ccc(C[C@H](NC(=O)C(F)=Cc2ccc(C)cc2)C(=O)O)cc1 [Compound S-5, O-methyl-N-(α-fluoro-4-methycinnamoyl)-L-tyrosine] | ≥ 3000 mg/kg |  | + | 
CCOc1ccc(C[C@H](NC(=O)C(F)=Cc2ccc(C)cc2)C(=O)O)cc1 [Compound S-6, O-ethyl-N-(α-fluroro-4-methylcinnamoyl)-L-tyrosine] |  | + | + | degree of increase of blood insulin ([2]; 15 min.): 5.3; percent decrease in blood sugar (%) ([2]; 15 min.): 29.1%; degree of increase of blood insulin ([2]; 30 min.): -; degree of increase of blood insulin ([2]; 60 min.): -
COc1ccc(C[C@H](NC(=O)C(Cl)=Cc2ccc(C)cc2)C(=O)O)cc1 [Compound S-7, O-methyl-N-(α-chloro-4-methylcinnamoyl)-L-tyrosine] |  | + | + | percent decrease in blood sugar (%) ([2]; 15 min.): 28.6%
COc1ccc(C[C@@H](NC(=O)C(Cl)=Cc2ccc(C)cc2)C(=O)O)cc1 [Compound S-8, O-methyl-N-(α-chloro-4-methylcinnamoyl)-D-tyrosine] |  |  | + | 
COc1ccc(C[C@H](NC(=O)C=C(Cl)c2ccc(C)cc2)C(=O)O)cc1 [Compound S-9, O-methyl-N-(β-chloro-4-methylcinnamoyl)-L-tyrosine] | ≥ 3000 mg/kg |  |  | degree of increase of blood insulin ([2]; 60 min.): -
COc1ccc(C[C@@H](NC(=O)C=C(Cl)c2ccc(C)cc2)C(=O)O)cc1 [Compound S-10, O-methyl-N-(β-chloro-4-methylcinnamoyl)-D-tyrosine] |  |  | + | 
